# Measured values as given in US8518419B2, “Method of treating diabetes” (Garvan Institute of Medical Research, priority 2006, dated 2013).
# Entries after “also recorded” stand apart in the source; their conditions may differ.
# What was measured:
# diabetic SCID mice = test: Minimal mass human islet transplantation into diabetic SCID mice; type: in vivo, mouse; conditions: human islets
# Procedure: Human pancreatic islets were isolated from normal glucose tolerant donors as previously described (Gunton et al., 2005). Islets were transplanted under the left kidney capsule of SCID mice which had been rendered diabetic by injection of Alloxan at 95 mg/kg intravenously. Islets were transplanted in adequate mass (2000 IEQ per mouse), or minimal mass (600 IEQ per mouse). In each of the islet isolations, 2000 control-treated IEQ per mouse was adequate to cure diabetes. As expected, 600 control-treated IEQ per mouse was not adequate to control glucose at day 28 post-transplant in any mouse. […]
# human islets = test: Insulin release of human islets at low and high glucose; type: cell-based; conditions: DFO 4 hours, low (5 mM) and high (11 mM) glucose
# Procedure: The present inventors were interested to determine whether DFO was beneficial for function of human islets. Islets were isolated from people with normal glucose tolerance and treated with control media or media supplemented with DFO for 4 hours, and insulin release subsequently measured at low (5 mM) and high (11 mM) glucose concentrations.
# Min6 cells [1] = test: Gene expression in Min6 cells by real-time PCR; type: cell-based, mouse
# Procedure: Human pancreatic islets were purified from seven normoglycemic subjects using the modified Ricordi method (Ricordi et al., 1988) as previously described (Gunton et al., 2005). The subjects are described in (Gunton et al., 2005), and were matched for age and body-mass-index. Gene expression was measured by real-time-PCR and was performed in a two-step reaction using the Invitrogen RT-for-PCR kit. The second step was performed in a fluorescent temperature cycler (ABI-Prism 7700 Sequence Detection System, Applied Biosystems) with LightCycler-RNA Master SYBR-Green-I (Roche, Mannheim, Germany) and specific primers for each of the genes (sequences available on request). Every plate included a control gene (TATA-box binding protein/TBP) for every subject. Results were analysed by unpaired t-test.
# In separate experiments, treated cells were lysed, and RNA isolated for real-time-PCR.
# Following treatment with HIF-1α RNAi, the present inventors measured expression of genes in the maturity onset diabetes of the young (MODY) family, insulin-signalling and glucose-uptake and glycolytic genes by real-time PCR. […] In the insulin signaling pathway, HIF-1α knockdown decreased insulin-receptor substrate (IRS)-2 mRNA (FIG. 3E).
# Min6 cells were treated with DFO at the doses indicated for 4 hours.
# Min6 cells [2] = test: Measurement of intracellular ATP concentrations; type: cell-based, mouse; conditions: DFO treatment
# Procedure: ATP concentrations were measured in islets and in Min6 cells following exposure to low (1 mM) or high glucose (25 mM) for 30 minutes. At the 30 minute timepoint, cells were placed on ice, washed twice in ice-cold PBS and lysed and ATP was measured using a kit purchased from Roche, according to the manufacturer's instructions.
# Min6 cells [3] = test: Glucose-stimulated insulin secretion (GSIS) in Min6 cells; type: cell-based, mouse; conditions: DFO treatment
# diabetic recipient mouse = test: Mouse islet transplantation into streptozotocin-diabetic mice; type: in vivo; conditions: mouse islets cultured with 125 μM DFO 2 hours before transplantation, 1 donor:1 recipient, followed 28 days
# Procedure: Islets were isolated from control mice and cultured with either control media or control media plus 125 μM DFO under normoxic conditions or in control media under hypoxic conditions (5% O2) for 2 hours before transplantation. All the islets from 1 donor mouse were transplanted into 1 recipient mouse which had been rendered diabetic (random glucose>22 mM) by streptozotocin treatment.
# Transplant recipients were followed for 28 days, at which time nephrectomy was performed to confirm recurrence of diabetes.
smiles,measurement,setting,value
"CC(=O)N(O)CCCCCNC(=O)CCC(=O)N(O)CCCCCNC(=O)CCC(=O)N(O)CCCCCN [DFO, desferrioxamine]",success rate following transplant of 600 IEQ,"diabetic SCID mice; DFO 125 μM for 4 hours pre-transplantation, day 28",75%
same,cure of diabetes following transplantation of 600 IEQ,"diabetic SCID mice; DFO 125 μmol/L prior to transplantation, n=8",75%
same,insulin release (GSIS) of human islets,human islets,markedly increased; also recorded: markedly improved GSIS
same,expression of ARNT,Min6 cells [1]; DFO 4 hours,"did not alter expression of the house-keeping genes TATA-box binding protein (TBP) or transthyretin, or (B) increase expression of ARNT"
same,expression of housekeeping genes TATA-box binding protein (TBP) and transthyretin,Min6 cells [1]; DFO 4 hours,did not increase expression; also recorded: did not alter expression
same,"expression of mRNAs for Akt2, GLUT1, GLUT2, HNF4α, IRS2 and phosphoglucomutase (PGM)",Min6 cells [1]; DFO 4 hours,dose-dependently increased expression; also recorded: significantly increased expression
same,"expression of HNF1α, HNF1β and insulin receptor",Min6 cells [1]; DFO 4 hours (data not shown),did not alter
same,HIF-1α mRNA expression,"Min6 cells [1]; highest dose of DFO, 4 hours",small but significant increase; also recorded: showed increased expression
same,ATP generation,Min6 cells [2],increased ATP generation; also recorded: increased ATP concentrations
same,glucose stimulated insulin secretion (GSIS),Min6 cells [3],substantial increase in GSIS
same,average glucose after transplantation,diabetic recipient mouse,11.4 mM
